The record followed here is US8404708B2, “Dual NK1/NK3 receptor antagonists” (Hoffmann-La Roche Inc., priority 2004, dated 2013).

Like-named read-outs stand apart in the source and are kept apart here.

In one assay the target is human NK1 receptor (Homo sapiens, UniProt P25103). In words: NK1 receptor binding, [3H]substance P displacement, CHO cell membranes.
In assay [1] the target is T1, Recombinant human NK3 (hNK3) receptor (Homo sapiens, UniProt P29371).
T1 construct: expressed in transfected cells
T1 sequence (P29371 1-465): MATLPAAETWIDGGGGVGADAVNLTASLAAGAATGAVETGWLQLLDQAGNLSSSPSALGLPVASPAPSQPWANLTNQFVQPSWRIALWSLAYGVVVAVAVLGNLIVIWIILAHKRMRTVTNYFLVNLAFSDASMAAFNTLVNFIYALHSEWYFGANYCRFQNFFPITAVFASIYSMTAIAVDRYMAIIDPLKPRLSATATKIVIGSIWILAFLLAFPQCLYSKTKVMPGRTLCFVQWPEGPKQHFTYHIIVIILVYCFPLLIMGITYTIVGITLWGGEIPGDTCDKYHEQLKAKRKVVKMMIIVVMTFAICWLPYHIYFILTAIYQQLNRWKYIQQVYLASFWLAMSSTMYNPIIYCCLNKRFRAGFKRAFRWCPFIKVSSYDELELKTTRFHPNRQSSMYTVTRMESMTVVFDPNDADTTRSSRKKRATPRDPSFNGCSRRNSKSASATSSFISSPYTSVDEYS
Briefly: NK3 receptor binding, [3H]SR142801 displacement, membrane preparations. The method, boiled down: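 hNK3 membranes (~2.5 μg/well) incubated 90 min at room temperature in 50 mM Tris-HCl pH 7.4 with 0.1% BSA, 4 mM MnCl2, 1 μM phosphoramidon. Nonspecific binding defined with 10 μM SB222200; bound [3H]SR142801 separated by filtration on PEI-soaked GF/C filters and counted by scintillation.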

The mark [2] stands for this setting: first value of the cell pKi NK1/NK3, human NK1 receptor, [3H]substance P.
The mark [3] stands for this setting: second value of the cell pKi NK1/NK3, hNK3 receptor, [3H]SR142801.
The mark [4] stands for this setting: first value of the cell NK1/NK3, read-out: pKi NK1 (converted).
Where [5] appears, read: second value of the cell NK1/NK3, read-out: pKi NK3 (converted).

Chain of human NK1 receptor (P25103 whole entry): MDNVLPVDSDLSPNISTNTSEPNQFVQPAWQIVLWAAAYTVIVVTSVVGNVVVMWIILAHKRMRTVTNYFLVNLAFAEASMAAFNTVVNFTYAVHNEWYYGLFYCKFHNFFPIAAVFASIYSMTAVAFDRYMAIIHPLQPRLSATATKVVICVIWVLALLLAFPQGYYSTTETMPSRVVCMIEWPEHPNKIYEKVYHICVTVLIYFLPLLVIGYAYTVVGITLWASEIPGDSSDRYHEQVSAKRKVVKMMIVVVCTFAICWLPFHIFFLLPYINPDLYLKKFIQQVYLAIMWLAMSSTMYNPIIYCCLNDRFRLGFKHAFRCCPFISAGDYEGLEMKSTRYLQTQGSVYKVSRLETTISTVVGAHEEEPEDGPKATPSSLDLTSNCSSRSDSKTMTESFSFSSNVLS

In the case of `CCN(CCO)c1cc(-c2ccccc2Cl)c(N(C)C(=O)C(C)(C)c2cc(C(F)(F)F)cc(C(F)(F)F)c2)cn1` [Example 55, 2-(3,5-Bis-trifluoromethyl-phenyl)-N-{4-(2-chloro-phenyl)-6-[ethyl-(2-hydroxy-ethyl)-amino]-pyridin-3-yl}-N-methyl-isobutyramide], the figures for the Ki (at human NK1 receptor (setting [2]); in assay [1] (setting [3])) were 3.31 nM and 11.2 nM, respectively.
The corresponding values for `CC(=O)N[C@H]1CCN(c2cc(-c3ccccc3Br)c(N(C)C(=O)C(C)(C)c3cc(C(F)(F)F)cc(C(F)(F)F)c3)cn2)C1` [Example 133, (S)-N-[6-(3-Acetylamino-pyrrolidin-1-yl)-4-(2-bromo-phenyl)-pyridin-3-yl]-2-(3,5-bis-trifluoromethyl-phenyl)-N-methyl-isobutyramide] are 0.794 nM and 2 nM.
As for `Cc1ccccc1-c1cc(N2CCS(=O)(=O)CC2CO)ncc1N(C)C(=O)C(C)(C)c1cc(C(F)(F)F)cc(C(F)(F)F)c1` (racemic) [Example 178, (RS)-2-(3,5-Bis-trifluoromethyl-phenyl)-N-[6-(3-hydroxymethyl-1,1-dioxo-1λ^6-thiomorpholin-4-yl)-4-o-tolyl-pyridin-3-yl]-N-methyl-isobutyramide], the Ki at human NK1 receptor (setting [2]) is 0.933 nM; in assay [1] (setting [3]), 3.47 nM.
For `CCN(C(C)=O)C1CCN(c2cc(-c3ccccc3Cl)c(N(C)C(=O)C(C)(C)c3cc(C(F)(F)F)cc(C(F)(F)F)c3)cn2)C1` (racemic) [Example 45, (RS)-N-[6-[3-(Acetyl-ethyl-amino)-pyrrolidin-1-yl]-4-(2-chloro-phenyl)-pyridin-3-yl]-2-(3,5-bis-trifluoromethyl-phenyl)-N-methyl-isobutyramide], in that order: 2.29 nM and 2 nM.
For `CN(C(=O)C(C)(C)c1cc(C(F)(F)F)cc(C(F)(F)F)c1)c1cnc(N2C[C@H](O)[C@@H](O)C2)cc1-c1ccccc1Cl` [Example 182, (3S,4S)-2-(3,5-Bis-trifluoromethyl-phenyl)-N-[4-(2-chloro-phenyl)-6-(3,4-dihydroxy-pyrrolidin-1-yl)-pyridin-3-yl]-N-methyl-isobutyramide], in that order: 0.933 nM and 32.4 nM.
The corresponding values for `CN(C(=O)C(C)(C)c1cc(C(F)(F)F)cc(C(F)(F)F)c1)c1cnc(N(CCO)CCO)cc1-c1ccc(F)cc1` [Example 88, N-[6-[Bis-(2-hydroxy-ethyl)-amino]-4-(4-fluoro-phenyl)-pyridin-3-yl]-2-(3,5-bis-trifluoromethyl-phenyl)-N-methyl-isobutyramide] are 1.35 nM and 9.33 nM.
For `Cc1ccncc1-c1cc(N2CCC[C@H]2CO)ncc1N(C)C(=O)C(C)(C)c1cc(C(F)(F)F)cc(C(F)(F)F)c1` [Example 292, (S)-2-(3,5-Bis-trifluoromethyl-phenyl)-N-[6′-(2-hydroxymethyl-pyrrolidin-1-yl)-4-methyl-[3,4′]bipyridinyl-3′-yl]-N-methyl-isobutyramide], the Ki on human NK1 receptor (setting [4]) is 3.63 nM; in assay [1] (setting [5]), 0.776 nM.
As for `CN(C(=O)C(C)(C)c1cc(Cl)cc(OC(F)F)c1)c1cnc(N2C[C@H](O)C[C@H]2CO)cc1-c1ccccc1Cl` [Example 35, (2S,4R)-2-(3-Chloro-5-difluoromethoxy-phenyl)-N-[4-(2-chloro-phenyl)-6-(4-hydroxy-2-hydroxymethyl-pyrrolidin-1-yl)-pyridin-3-yl]-N-methyl-isobutyramide], the Ki at human NK1 receptor (setting [2]) was 1.95 nM; in assay [1] (setting [3]), 0.55 nM.
With `CN(C(=O)C(C)(C)c1cc(F)cc(C(F)(F)F)c1)c1cnc(N2C[C@H](O)C[C@H]2CO)cc1-c1ccccc1Cl` [Example 5, (2S,4R)-N-[4-(2-Chloro-phenyl)-6-(4-hydroxy-2-hydroxymethyl-pyrrolidin-1-yl)-pyridin-3-yl]-2-(3-fluoro-5-trifluoromethyl-phenyl)-N-methyl-isobutyramide], the Ki was 1.55 nM at human NK1 receptor (setting [2]) and 1.74 nM in assay [1] (setting [3]).
For `CN(C(=O)C(C)(C)c1cc(C(F)(F)F)cc(C(F)(F)F)c1)c1cnc(N2CC[C@H](O)C2)cc1-c1ccccc1Cl` [Example 46, (S)-2-(3,5-Bis-trifluoromethyl-phenyl)-N-[4-(2-chloro-phenyl)-6-(3-hydroxy-pyrrolidin-1-yl)-pyridin-3-yl]-N-methyl-isobutyramide], in that order: 0.603 nM and 8.71 nM.
Take `CN(C(=O)C(C)(C)c1cc(C(F)(F)F)cc(C(F)(F)F)c1)c1cnc(N2C[C@H](O)C[C@H]2CO)cc1-c1ccc(F)c(F)c1` [Example 209, (2S,4R)-2-(3,5-Bis-trifluoromethyl-phenyl)-N-[4-(3,4-difluoro-phenyl)-6-(4-hydroxy-2-hydroxymethyl-pyrrolidin-1-yl)-pyridin-3-yl]-N-methyl-isobutyramide]: the results for the Ki (on human NK1 receptor (setting [4]); in assay [1] (setting [5])) were 1.35 nM and 3.47 nM, respectively.
`CCN([C@H]1CCN(c2cc(-c3ccc(F)cc3C)c(N(C)C(=O)C(C)(C)c3cc(C(F)(F)F)cc(C(F)(F)F)c3)cn2)C1)S(C)(=O)=O` [Example 106]: the Ki at human NK1 receptor (setting [2]) is 0.589 nM; in assay [1] (setting [3]), 4.68 nM.
Turning to `CN(C(=O)C(C)(C)c1cc(C(F)(F)F)cc(C(F)(F)F)c1)c1cnc(N2CC[C@H](O)[C@H]2CO)cc1-c1ccccc1F` [Example 264, (2R,3S)-2-(3,5-Bis-trifluoromethyl-phenyl)-N-[4-(2-fluoro-phenyl)-6-(3-hydroxy-2-hydroxymethyl-pyrrolidin-1-yl)-pyridin-3-yl]-N-methyl-isobutyramide], the Ki at human NK1 receptor (setting [4]) was 1.48 nM; in assay [1] (setting [5]), 2.14 nM.
As to `CN(C(=O)C(C)(C)c1cc(Cl)cc(OC(F)F)c1)c1cnc(N2CCC[C@H]2CO)cc1-c1ccccc1Cl` [Example 34, (S)-2-(3-Chloro-5-difluoromethoxy-phenyl)-N-[4-(2-chloro-phenyl)-6-(2-hydroxymethyl-pyrrolidin-1-yl)-pyridin-3-yl]-N-methyl-isobutyramide], the Ki on human NK1 receptor (setting [2]) was 3.89 nM; in assay [1] (setting [3]), 0.832 nM.
The corresponding values for `CC(O)CNc1cc(-c2ccccc2Cl)c(N(C)C(=O)C(C)(C)c2cc(C(F)(F)F)cc(C(F)(F)F)c2)cn1` (racemic) [Example 74, (RS)-2-(3,5-Bis-trifluoromethyl-phenyl)-N-[4-(2-chloro-phenyl)-6-(2-hydroxy-propylamino)-pyridin-3-yl]-N-methyl-isobutyramide] are 0.871 nM and 5.75 nM.
For `CN(C(=O)C(C)(C)c1cc(C(F)(F)F)cc(C(F)(F)F)c1)c1cnc(N2CCC(CO)C2)cc1-c1ccccc1Cl` (racemic) [Example 171, (RS)-2-(3,5-Bis-trifluoromethyl-phenyl)-N-[4-(2-chloro-phenyl)-6-(3-hydroxymethyl-pyrrolidin-1-yl)-pyridin-3-yl]-N-methyl-isobutyramide], in that order: 3.72 nM and 24.5 nM.
Regarding `CN(C(=O)C(C)(C)c1cc(C(F)(F)F)cc(C(F)(F)F)c1)c1cnc(N2CC[C@H](O)[C@H]2CO)cc1-c1ccccc1C(F)(F)F` [Example 262, (2R,3S)-2-(3,5-Bis-trifluoromethyl-phenyl)-N-[6-(3-hydroxy-2-hydroxymethyl-pyrrolidin-1-yl)-4-(2-trifluoromethyl-phenyl)-pyridin-3-yl]-N-methyl-isobutyramide], the figures for the Ki (on human NK1 receptor (setting [4]); in assay [1] (setting [5])) were 7.94 nM and 9.77 nM, respectively.
For `CN(CCO)c1cc(-c2ccccc2Cl)c(N(C)C(=O)C(C)(C)c2cc(C(F)(F)F)cc(C(F)(F)F)c2)cn1` [Example 54, 2-(3,5-Bis-trifluoromethyl-phenyl)-N-{4-(2-chloro-phenyl)-6-[(2-hydroxy-ethyl)-methyl-amino]-pyridin-3-yl}-N-methyl-isobutyramide], the Ki at human NK1 receptor (setting [2]) is 1 nM; in assay [1] (setting [3]), 2.69 nM.
As to `CN(C(=O)C(C)(C)c1cc(C(F)(F)F)cc(C(F)(F)F)c1)c1cnc(N2C[C@@H](O)C[C@H]2CO)cc1-c1ccccc1Br` [Example 246, (2S,4S)-2-(3,5-Bis-trifluoromethyl-phenyl)-N-[4-(2-bromo-phenyl)-6-(4-hydroxy-2-hydroxymethyl-pyrrolidin-1-yl)-pyridin-3-yl]-N-methyl-isobutyramide], the Ki was 1.91 nM on human NK1 receptor (setting [4]) and 1.48 nM in assay [1] (setting [5]).
Take `CN(C(=O)C(C)(C)c1cc(C(F)(F)F)cc(C(F)(F)F)c1)c1cnc(N2CC(O)C2)cc1-c1ccccc1Cl` [Example 98, 2-(3,5-Bis-trifluoromethyl-phenyl)-N-[4-(2-chloro-phenyl)-6-(3-hydroxy-azetidin-1-yl)-pyridin-3-yl]-N-methyl-isobutyramide]: the Ki is 0.692 nM on human NK1 receptor (setting [2]) and 3.47 nM in assay [1] (setting [3]).
The corresponding values for `CC(=O)NCCNc1cc(-c2ccccc2Cl)c(N(C)C(=O)C(C)(C)c2cc(C(F)(F)F)cc(C(F)(F)F)c2)cn1` [Example 90, N-[6-(2-Acetylamino-ethylamino)-4-(2-chloro-phenyl)-pyridin-3-yl]-2-(3,5-bis-trifluoromethyl-phenyl)-N-methyl-isobutyramide] are 1.78 nM and 6.03 nM.
